Measurements from ChEMBL document CHEMBL3885881, “DrugMatrix”.

Species on record: Rattus norvegicus
Test: DrugMatrix - Regimen: Daily Repeat
Format: toxicity, organism-based, Sprague-Dawley
Set-up: regimen Daily Repeat, gender Male, age 6-8 weeks
Details: in vivo, po, route oral GAVAGE, vehicle .5 % CMC; for ABSOLUTE BASOPHIL / ABSOLUTE EOSINOPHIL / ABSOLUTE MONOCYTE / ABSOLUTE SEGMENTED NEUTROPHIL / BASOPHIL / EOSINOPHIL / ERYTHROCYTE COUNT / HEMATOCRIT / HEMOGLOBIN / LEUKOCYTE COUNT / LYMPHOCYTE / MEAN CORPUSCULAR HEMOGLOBIN / MEAN CORPUSCULAR HEMOGLOBIN CONCENTRATION / MEAN CORPUSCULAR VOLUME / MONOCYTE / NEUTROPHIL / NUCLEATED RED BLOOD CELLS / PLATELET COUNT: tissue Blood; for ALANINE AMINOTRANSFERASE / ALBUMIN / ALKALINE PHOSPHATASE / ASPARTATE AMINOTRANSFERASE / BLOOD UREA NITROGEN / CARBON DIOXIDE / CHLORIDE / CHOLESTEROL / CREATINE PHOSPHOKINASE / CREATININE / GLUCOSE / LACTATE DEHYDROGENASE / LIPASE / PHOSPHORUS / POTASSIUM / SODIUM / TOTAL BILIRUBIN / TOTAL PROTEIN / URIC ACID: tissue Plasma
[1] = 0 mg/kg, 72 h, dose level Control, time 3 day
[2] = 0 mg/kg, 120 h, dose level Control, time 5 day
[3] = […], 72 h, dose 6.5 mg/Kg, dose level Low, time 3 day
[4] = […], 120 h, dose 6.5 mg/Kg, dose level Low, time 5 day

SMILES: CN(C)CCOC(c1ccccc1)c1ccccc1.Cn1c(=O)c2[nH]c(Cl)nc2n(C)c1=O [DIMENHYDRINATE]
- ABSOLUTE BASOPHIL [1]: 0 CELLS/uL
- ABSOLUTE EOSINOPHIL [1]: 32.5 CELLS/uL
- ABSOLUTE MONOCYTE [1]: 474 CELLS/uL
- ABSOLUTE SEGMENTED NEUTROPHIL [1]: 1932.67 CELLS/uL
- BASOPHIL [1]: 0%
- EOSINOPHIL [1]: 0.17%
- ERYTHROCYTE COUNT [1]: 5.45 x10E6/uL
- HEMATOCRIT [1]: 34.32%
- HEMOGLOBIN [1]: 13.82 G/DL
- LEUKOCYTE COUNT [1]: 15.93 x10E3/uL
- LYMPHOCYTE [1]: 84.83%
- MEAN CORPUSCULAR HEMOGLOBIN [1]: 25.38 pg
- MEAN CORPUSCULAR HEMOGLOBIN CONCENTRATION [1]: 40.27 G/DL
- MEAN CORPUSCULAR VOLUME [1]: 63.05 fL
- MONOCYTE [1]: 3%
- NEUTROPHIL [1]: 12%
- NUCLEATED RED BLOOD CELLS [1]: 0.67 /100WBC
- PLATELET COUNT [1]: 1188.5 x10E3/uL
- ALANINE AMINOTRANSFERASE [1]: 54.83 u/L
- ALBUMIN [1]: 4.22 G/DL
- ALKALINE PHOSPHATASE [1]: 427.67 u/L
- ASPARTATE AMINOTRANSFERASE [1]: 86.5 u/L
- BLOOD UREA NITROGEN [1]: 15.33 mg/dL
- CARBON DIOXIDE [1]: 24.83 mmol/L
- CHLORIDE [1]: 102.33 MEQ/L
- CHOLESTEROL [1]: 71.67 mg/dL
- CREATINE PHOSPHOKINASE [1]: 442.5 u/L
- CREATININE [1]: 0.19 mg/dL
- GLUCOSE [1]: 160.67 mg/dL
- LACTATE DEHYDROGENASE [1]: 236.5 u/L
- LIPASE [1]: 9 u/L
- PHOSPHORUS [1]: 11.97 mg/dL
- POTASSIUM [1]: 6.2 MEQ/L
- SODIUM [1]: 142.85 MEQ/L
- TOTAL BILIRUBIN [1]: 0.2 mg/dL
- TOTAL PROTEIN [1]: 5.8 G/DL
- URIC ACID [1]: 1.3 mg/dL
- ABSOLUTE BASOPHIL [2]: 0 CELLS/uL
- ABSOLUTE EOSINOPHIL [2]: 114.5 CELLS/uL
- ABSOLUTE MONOCYTE [2]: 173 CELLS/uL
- ABSOLUTE SEGMENTED NEUTROPHIL [2]: 1048.5 CELLS/uL
- BASOPHIL [2]: 0%
- EOSINOPHIL [2]: 0.67%
- ERYTHROCYTE COUNT [2]: 5.66 x10E6/uL
- HEMATOCRIT [2]: 35.52%
- HEMOGLOBIN [2]: 14.27 G/DL
- LEUKOCYTE COUNT [2]: 15.95 x10E3/uL
- LYMPHOCYTE [2]: 91.33%
- MEAN CORPUSCULAR HEMOGLOBIN [2]: 25.23 pg
- MEAN CORPUSCULAR HEMOGLOBIN CONCENTRATION [2]: 40.2 G/DL
- MEAN CORPUSCULAR VOLUME [2]: 62.7 fL
- MONOCYTE [2]: 1.17%
- NEUTROPHIL [2]: 6.83%
- NUCLEATED RED BLOOD CELLS [2]: 0.33 /100WBC
- PLATELET COUNT [2]: 1229 x10E3/uL
- ALANINE AMINOTRANSFERASE [2]: 58.67 u/L
- ALBUMIN [2]: 4.32 G/DL
- ALKALINE PHOSPHATASE [2]: 382.5 u/L
- ASPARTATE AMINOTRANSFERASE [2]: 81.67 u/L
- BLOOD UREA NITROGEN [2]: 17.67 mg/dL
- CARBON DIOXIDE [2]: 27.17 mmol/L
- CHLORIDE [2]: 102.33 MEQ/L
- CHOLESTEROL [2]: 63.67 mg/dL
- CREATINE PHOSPHOKINASE [2]: 227.67 u/L
- CREATININE [2]: 0.23 mg/dL
- GLUCOSE [2]: 155.33 mg/dL
- LACTATE DEHYDROGENASE [2]: 146.5 u/L
- LIPASE [2]: 10.67 u/L
- PHOSPHORUS [2]: 11.93 mg/dL
- POTASSIUM [2]: 6.85 MEQ/L
- SODIUM [2]: 143.95 MEQ/L
- TOTAL BILIRUBIN [2]: 0.18 mg/dL
- TOTAL PROTEIN [2]: 6.02 G/DL
- URIC ACID [2]: 1.63 mg/dL
- ABSOLUTE BASOPHIL [3]: 0 CELLS/uL
- ABSOLUTE EOSINOPHIL [3]: 46.67 CELLS/uL
- ABSOLUTE MONOCYTE [3]: 474 CELLS/uL
- ABSOLUTE SEGMENTED NEUTROPHIL [3]: 1911.67 CELLS/uL
- BASOPHIL [3]: 0%
- EOSINOPHIL [3]: 0.33%
- ERYTHROCYTE COUNT [3]: 5.67 x10E6/uL
- HEMATOCRIT [3]: 35.5%
- HEMOGLOBIN [3]: 13.93 G/DL
- LEUKOCYTE COUNT [3]: 14.93 x10E3/uL
- LYMPHOCYTE [3]: 84%
- MEAN CORPUSCULAR HEMOGLOBIN [3]: 24.57 pg
- MEAN CORPUSCULAR HEMOGLOBIN CONCENTRATION [3]: 39.27 G/DL
- MEAN CORPUSCULAR VOLUME [3]: 62.6 fL
- MONOCYTE [3]: 3%
- NEUTROPHIL [3]: 12.67%
- NUCLEATED RED BLOOD CELLS [3]: 0 /100WBC
- PLATELET COUNT [3]: 1199.33 x10E3/uL
- ALANINE AMINOTRANSFERASE [3]: 47.67 u/L
- ALBUMIN [3]: 4.03 G/DL
- ALKALINE PHOSPHATASE [3]: 343 u/L
- ASPARTATE AMINOTRANSFERASE [3]: 87 u/L
- BLOOD UREA NITROGEN [3]: 15 mg/dL
- CARBON DIOXIDE [3]: 25.67 mmol/L
- CHLORIDE [3]: 102 MEQ/L
- CHOLESTEROL [3]: 75.33 mg/dL
- CREATINE PHOSPHOKINASE [3]: 266 u/L
- CREATININE [3]: 0.14 mg/dL
- GLUCOSE [3]: 167.33 mg/dL
- LACTATE DEHYDROGENASE [3]: 166 u/L
- LIPASE [3]: 9.33 u/L
- PHOSPHORUS [3]: 12.2 mg/dL
- POTASSIUM [3]: 6.53 MEQ/L
- SODIUM [3]: 144.67 MEQ/L
- TOTAL BILIRUBIN [3]: 0.2 mg/dL
- TOTAL PROTEIN [3]: 5.6 G/DL
- URIC ACID [3]: 1.57 mg/dL
- ABSOLUTE BASOPHIL [4]: 0 CELLS/uL
- ABSOLUTE EOSINOPHIL [4]: 108.67 CELLS/uL
- ABSOLUTE MONOCYTE [4]: 85.67 CELLS/uL
- ABSOLUTE SEGMENTED NEUTROPHIL [4]: 1586.67 CELLS/uL
- BASOPHIL [4]: 0%
- EOSINOPHIL [4]: 0.67%
- ERYTHROCYTE COUNT [4]: 5.47 x10E6/uL
- HEMATOCRIT [4]: 34.93%
- HEMOGLOBIN [4]: 14.13 G/DL
- LEUKOCYTE COUNT [4]: 19.43 x10E3/uL
- LYMPHOCYTE [4]: 91.67%
- MEAN CORPUSCULAR HEMOGLOBIN [4]: 25.8 pg
- MEAN CORPUSCULAR HEMOGLOBIN CONCENTRATION [4]: 40.47 G/DL
- MEAN CORPUSCULAR VOLUME [4]: 63.8 fL
- MONOCYTE [4]: 0.33%
- NEUTROPHIL [4]: 7.33%
- NUCLEATED RED BLOOD CELLS [4]: 0 /100WBC
- PLATELET COUNT [4]: 1543 x10E3/uL
- ALANINE AMINOTRANSFERASE [4]: 48.67 u/L
- ALBUMIN [4]: 4.17 G/DL
- ALKALINE PHOSPHATASE [4]: 266.33 u/L
- ASPARTATE AMINOTRANSFERASE [4]: 77.33 u/L
- BLOOD UREA NITROGEN [4]: 18.67 mg/dL
- CARBON DIOXIDE [4]: 25 mmol/L
- CHLORIDE [4]: 96 MEQ/L
- CHOLESTEROL [4]: 71.33 mg/dL
- CREATINE PHOSPHOKINASE [4]: 225.67 u/L
- CREATININE [4]: 0.2 mg/dL
- GLUCOSE [4]: 159 mg/dL
- LACTATE DEHYDROGENASE [4]: 96.67 u/L
- LIPASE [4]: 10 u/L
- PHOSPHORUS [4]: 13.07 mg/dL
- POTASSIUM [4]: 6.62 MEQ/L
- SODIUM [4]: 135.4 MEQ/L
- TOTAL BILIRUBIN [4]: 0.13 mg/dL
- TOTAL PROTEIN [4]: 5.8 G/DL
- URIC ACID [4]: 2.27 mg/dL
